# Laboratory results taken from patent publication US20240043473A1, “NOOTROPIC PEPTIDES FOR TREATING LYSOSOMAL STORAGE DISEASES” (Phoenix Nest Inc., priority 2021, published 2024).
# Entries after “also recorded” stand apart in the source; their conditions may differ. No end group written: not given here.
# What was measured:
# Format in all cases: in vivo, mouse
# [1] = test system: Hgsnat^P304L and Hgsnat-Geo MPS IIIC mice; assay: Elevated Plus Maze test
# Protocol: Method: Elevated plus maze that measures a natural fear of heights reflex of animals. AVP6 was administered intranasally at 50 μg/kg (5 μl/nostril) to the animals 17 h before the experiment.
# The elevated plus-maze test was performed as follows. Each mouse was placed in the center of the elevated plus maze and allowed to freely explore undisturbed for 10 min. After each testing, the mouse was returned to the home cage and the arena was cleaned with 70% ethanol before the commencement of the next test. Analysis of the behavioral activity (percentage of time spent in the center zone, closed arms, and open arms; as well as the number of open arm entries) was done by the Smart v3.0 software.
# (§1) Starting from 3 weeks of age, WT C57B16 and homozygous Hgsnat^P304L male and female mice were randomly divided in treatment and control groups (6-13 mice/sex/genotype/treatment; see Table I). The control group was daily administered with saline (5 μL to each nostril), while for the treatment group, saline was supplemented with 125 µg of AVP6/mL, which would result in a dose of approximately 50 μg/kg BW/day. The peptide formulation was prepared once, aliquoted and kept frozen at −80° C. until use. At 4 months, all mice were studied by EPM, OF, YM and NOR behavioral tests. Administration of the drug or saline was continued through the days on which the assays were conducted. Then approximately at 5 months 4-5 mice in each group were sacrificed. Their blood plasma was collected, and their tissues were either snap-frozen or fixed and cryopreserved to analyze CNS pathology as described above. For the remaining mice, treatment was continued and their behaviour was studied again at the age of 6 months using OF. NOR and YM tests. Starting from the age of 8 months, Hgsnat^P304L treated and untreated mice were daily studied for the signs of urinary retention. When such signs were detected, the mice were studied by ERG and sacrificed within 1-2 days. Finally, the remaining treated and untreated WT mice were studied by ERG and sacrificed at the end of the study, approximately at 10 months of age.
# [2] = test system: somatosensory cortex and hippocampus of Hgsnat^P304L mice; assay: Brain immunohistochemistry after chronic treatment (synaptic markers, astrocytosis, microgliosis, lysosomal puncta)
# Protocol: Mouse brains were collected from animals perfused with 4% PFA in PBS and post-fixed in 4% PFA in PBS overnight. Brains were cryopreserved in 30% sucrose for 2 days at 4° C., embedded in Tissue-Tek® OCT Compound and stored at −80° C. Brains were cut in 40 μm-thick sections and stored in cryopreservation buffer (0.05 M sodium phosphate buffer pH 7.4, 15% sucrose, 40% ethylene glycol) at −20° C. pending immunohistochemistry. Mouse brain sections were washed 3 times with PBS and permeabilized/blocked by incubating in 5% bovine serum albumin (BSA), 0.3% Triton X-100 in PBS for 1 h at room temperature. Incubation with primary antibodies, diluted in 1% BSA, 0.3% Triton X-100 in PBS, was performed overnight at 4° C.
# The mouse brain sections were washed 3 times with PBS and counterstained with Alexa Fluor-labeled secondary antibodies (dilution 1:400) for 2 h at room temperature. After washing 3 times with PBS, the mouse brain sections were treated with TrueBlack® Lipofuscin Autofluorescence Quencher (Biotium, 23007, dilution 1:10) for 1 min, and then again washed 3 times with PBS. The slides were mounted with Prolong Gold Antifade mounting reagent with DAPI (Invitrogen, P36935) and analyzed using Leica DM 5500 Q upright confocal microscope (10×, 40×, and 63× oil objective, N.A. 1.4). Images were processed and quantified using ImageJ 1.50i software (National Institutes of Health. Bethesda, MD, USA) in a blinded fashion. Panels were assembled with Adobe Photoshop.
# as §1
# After completion of the behavioural analysis at 4 months, 50% of mice in each group were sacrificed for analysis of CNS pathology and biochemical testing. To study the effect of the treatment on synaptic architecture, we have stained the brain sections for presynaptic (VGLUT1) and postsynaptic (PSD-95, BDNF) markers and quantified their levels in the CA1 area of hippocampi and in layers 3-4 of somatosensory cortex.
# The terminal CNS pathology was studied using the same set of biomarkers as at 4 months, either by IHC (astrocytosis, microgliosis, synaptic markers SYN1, PSD-95, […], BDNF) or by biochemical (total β-hexosaminidase activity, expression levels of inflammatory cytokines) assays.
# MIP1α = assay: Expression of inflammatory cytokine in brain (real-time qPCR); conditions: chronic daily 50 μg/kg BW; Hgsnat^P304L mice at 5 months; vs saline
# Protocol: RNA was isolated from snap-frozen brain, kidney and liver tissues using the TRIzol reagent (Invitrogen) and reverse-transcribed using the iScript™ Reverse Transcription Supermix (Bio RAD #1708840) according to the manufacturer's protocol, qPCR was performed using a LightCycler® 96 Instrument (Roche) and SsoFast™ EvaGreen® Supermix with Low ROX (Bio RAD #1725211) according to the manufacturer's protocol. RLP32 mRNA was used as a reference control.
# Starting from 3 weeks of age, WT C57B16 and homozygous Hgsnat^P304L male and female mice were randomly divided in treatment and control groups (6-13 mice/sex/genotype/treatment; see Table I). The control group was daily administered with saline (5 μL to each nostril), while for the treatment group, saline was supplemented with 125 µg of AVP6/mL, which would result in a dose of approximately 50 μg/kg BW/day. The peptide formulation was prepared once, aliquoted and kept frozen at −80° C. until use. At 4 months, all mice were studied by EPM, OF, YM and NOR behavioral tests. Administration of the drug or saline was continued through the days on which the assays were conducted. Then approximately at 5 months 4-5 mice in each group were sacrificed. […] When such signs were detected, the mice were studied by ERG and sacrificed within 1-2 days. […]
# [3] = chronic daily 50 μg/kg BW from 3 weeks, Hgsnat^P304L mice at sacrifice (10-11 months)
substance,measurement,setting,value
"AVP6: N-terminally acetylated Semax, a nootropic peptide having the amino acid sequence of MEHFPGP (SEQ ID NO:1) (Ac-MEHFPGP)","reduced fear (open arm entries, time in open arms), Elevated Plus Maze","[1]; chronic daily intranasal 50 μg/kg BW from 3 weeks, Hgsnat^P304L mice at 4 months",showed no difference from their WT counterparts; also recorded: show the rescue of all above deficits
same,Elevated Plus Maze parameters in WT mice,"[1]; chronic daily treatment, WT mice at 4 months",no effect of the drug was detected in the WT mice
same,"reduced fear/anxiety, Elevated Plus Maze","[1]; single intranasal 50 μg/kg 17 h before test, Hgsnat-Geo mice, 6 months",showed a behavior similar to their WT counterparts; also recorded: also rescues reduced anxiety in EPM test
same,"reduced fear (time spent in open arms, number of open arm entries), Elevated Plus Maze","[1]; single intranasal 50 μg/kg 17 h before test, Hgsnat^P311L (P304L) mice, 4 months",rescues reduced fear; also recorded: showed a behavior similar to their WT counterparts; also recorded: Both parameters are normalized
same,"levels of synaptic markers VGLUT1, PSD-95 and BDNF in CA1 hippocampus and somatosensory cortex","[2]; chronic daily 50 μg/kg BW from 3 weeks, Hgsnat^P304L mice at 5 months",are rescued
same,GFAP+ astrocytes and CD68+ activated microglia in cortex and hippocampus,"[2]; chronic daily 50 μg/kg BW from 3 weeks, Hgsnat^P304L mice at 5 months, vs saline",normalizes astrocytosis and microgliosis; also recorded: are reduced
same,levels of post-synaptic proteins PSD-95 and BDNF,[2]; [3],completely recovered; also recorded: are rescued in hippocampus and partially rescued in the somatosensory cortex
same,levels of presynaptic proteins GLUT1 (VGLUT1) and SYN1,[2]; [3],"either increased in the AVP6-treated as compared with saline-treated Hgsnat^P304L mice, or remained significantly lower than those in WT animals; also recorded: are rescued in hippocampus and partially rescued in the somatosensory cortex"
same,levels and sizes of LAMP2+/HS+ or GM2-ganglioside+ lysosomal puncta in cortical/hippocampal neurons,"[2]; chronic daily 50 μg/kg BW, Hgsnat^P304L mice at 5 months, vs saline",remained similar
same,"markers of astrocytosis and microgliosis, GFAP and CD68","[2]; chronic daily 50 μg/kg BW, Hgsnat^P304L mice at 10-11 months, vs saline, cortex levels remained above WT",significantly reduced; also recorded: reduces it; also recorded: reduces levels of activated GFAP+ astrocytes in the cortex (D) and CD68+ microglia in both cortex and hippocampus
same,LAMP2 levels in brain sections compared with WT,"[2]; chronic daily 50 μg/kg BW, Hgsnat^P304L mice at terminal timepoint",remained significantly increased
same,expression levels of inflammatory cytokine MIP1α in the brain,MIP1α,reduced expression levels
